± gives the expanded uncertainty stated by the source.
Test: xn = mol fraction of the nth substance listed
Conditions: 101 kPa, Liquid; for speed of sound: Sing-around technique in a fixed-path interferometer; for mass density: Vibrating tube method

CCCCCCOCCOCCO [2-(2-hexyloxyethoxy)ethanol] + CCCCN
Conditions	mass density, 288.15 K [kg/m3]	mass density, 293.15 K [kg/m3]	mass density, 298.15 K [kg/m3]	mass density, 303.15 K [kg/m3]	mass density, 308.15 K [kg/m3]	speed of sound, 288.15 K [m/s]	speed of sound, 293.15 K [m/s]	speed of sound, 298.15 K [m/s]	speed of sound, 303.15 K [m/s]	speed of sound, 308.15 K [m/s]
x1 = 0.1165	788.964 ± 0.62	784.34 ± 0.62	779.774 ± 0.61	775.186 ± 0.61	770.602 ± 0.6	1323 ± 2.1	1302.2 ± 2.1	1281.5 ± 2.1	1260.8 ± 2.1	1240.3 ± 2.1
x1 = 0.1587	803.568 ± 0.63	799.044 ± 0.63	794.52 ± 0.62	790 ± 0.62	785.486 ± 0.62	1332.3 ± 2.1	1312 ± 2.1	1291.7 ± 2.1	1271.5 ± 2.1	1251.3 ± 2.1
x1 = 0.1943	814.988 ± 0.64	810.552 ± 0.64	806.078 ± 0.64	801.606 ± 0.63	797.118 ± 0.63	1339.5 ± 2.1	1319.7 ± 2.1	1299.7 ± 2.1	1279.8 ± 2.1	1259.8 ± 2.1
x1 = 0.2403	828.571 ± 0.66	824.179 ± 0.65	819.765 ± 0.65	815.333 ± 0.64	810.88 ± 0.64	1348.2 ± 2.1	1328.7 ± 2.1	1309.1 ± 2.1	1289.6 ± 2.1	1270 ± 2.1
x1 = 0.2974	843.631 ± 0.67	839.297 ± 0.67	834.939 ± 0.66	830.566 ± 0.66	826.173 ± 0.65	1357.8 ± 2.1	1338.8 ± 2.1	1319.6 ± 2.1	1300.6 ± 2.1	1281.3 ± 2.1
x1 = 0.3403	853.769 ± 0.68	849.458 ± 0.67	845.129 ± 0.67	840.783 ± 0.67	836.421 ± 0.66	1364.2 ± 2.1	1345.5 ± 2.1	1326.6 ± 2.1	1307.9 ± 2.1	1288.9 ± 2.1
x1 = 0.3916	864.666 ± 0.69	860.386 ± 0.69	856.092 ± 0.68	851.78 ± 0.68	847.457 ± 0.67	1371.1 ± 2.1	1352.6 ± 2.1	1334.1 ± 2.1	1315.7 ± 2.1	1297.1 ± 2.1
x1 = 0.4568	876.866 ± 0.7	872.668 ± 0.7	868.407 ± 0.69	864.132 ± 0.69	859.843 ± 0.68	1378.6 ± 2.1	1360.4 ± 2.1	1342.2 ± 2.1	1324.2 ± 2.1	1306 ± 2.1
x1 = 0.5105	885.772 ± 0.71	881.607 ± 0.71	877.388 ± 0.7	873.158 ± 0.7	868.903 ± 0.69	1383.9 ± 2.1	1365.9 ± 2.1	1348 ± 2.1	1330.1 ± 2.1	1312.3 ± 2.1
x1 = 0.5658	894.125 ± 0.72	889.991 ± 0.71	885.768 ± 0.71	881.571 ± 0.71	877.355 ± 0.7	1388.5 ± 2.1	1370.7 ± 2.1	1353 ± 2.1	1335.3 ± 2.1	1317.8 ± 2.1
x1 = 0.6081	900.031 ± 0.72	895.896 ± 0.72	891.728 ± 0.72	887.547 ± 0.71	883.355 ± 0.71	1391.5 ± 2.1	1373.9 ± 2.1	1356.3 ± 2.1	1338.8 ± 2.1	1321.2 ± 2.1
x1 = 0.6559	906.287 ± 0.73	902.162 ± 0.73	898.025 ± 0.72	893.876 ± 0.72	889.716 ± 0.71	1394.5 ± 2.1	1376.9 ± 2.1	1359.5 ± 2.1	1342.1 ± 2.1	1324.9 ± 2.1
x1 = 0.6977	911.396 ± 0.74	907.303 ± 0.73	903.194 ± 0.73	899.074 ± 0.72	894.942 ± 0.72	1396.7 ± 2.1	1379.2 ± 2.1	1361.8 ± 2.1	1344.5 ± 2.1	1327.5 ± 2.1
x1 = 0.7402	916.322 ± 0.74	912.248 ± 0.74	908.162 ± 0.73	904.067 ± 0.73	899.964 ± 0.72	1398.6 ± 2.1	1381.2 ± 2.1	1363.9 ± 2.1	1346.7 ± 2.1	1329.8 ± 2.1
x1 = 0.8029	923 ± 0.75	918.949 ± 0.74	914.893 ± 0.74	910.805 ± 0.74	906.755 ± 0.73	1400.8 ± 2.1	1383.5 ± 2.1	1366.4 ± 2.1	1349.3 ± 2.1	1332.5 ± 2.1
x1 = 0.8675	928.954 ± 0.76	924.929 ± 0.75	920.91 ± 0.75	916.89 ± 0.74	912.833 ± 0.74	1402.5 ± 2.1	1385.4 ± 2.1	1368.3 ± 2.1	1351.4 ± 2.1	1334.6 ± 2.1
x1 = 0.9082	932.126 ± 0.76	928.121 ± 0.76	924.113 ± 0.75	920.095 ± 0.75	916.07 ± 0.74	1403.4 ± 2.1	1386.3 ± 2.1	1369.3 ± 2.1	1352.4 ± 2.1	1335.7 ± 2.1
x1 = 0.9635	935.472 ± 0.76	931.477 ± 0.76	927.494 ± 0.75	923.492 ± 0.75	919.484 ± 0.74	1404.3 ± 2.1	1387.4 ± 2.1	1370.4 ± 2.1	1353.6 ± 2.1	1336.8 ± 2.1

Reference: the NIST ThermoML archive (doi:10.1021/je800026p)
